Values after ≈ are worked out from the molar mass of the structure shown.

In assay [1] the test system is E. coli D31m4. Nature of the assay: MIC in L broth tubes (Example 10). The assay is classed as cell-based. The following applies: Escherichia coli, D31M4, read-out: Minimum Inhibitory Concentration. On the procedure:
(§1) The inhibitory effects of compounds of the invention were examined relative to doxycycline using tetracycline-sensitive and tetracycline-resistant strains of E. coli, S. aureus, and E. faecalis as specified in the Tables below. The general protocol for performing these experiments was as follows: cultures were grown up fresh in L broth in the morning from an overnight culture. After 4-6 hours of growth, each bacterial culture was diluted to an A530 of 0.2-0.5 depending on the strain (E. coli, 0.5; S. aureus, 0.4; E. faecalis, 0.2). Individual tubes, containing 1 ml of L broth and different concentrations of the tested compound, were inoculated with the different bacterial cultures and then incubated at 37° C. After 17-18 hours of incubation, the concentration of the tested compound at which no observed cloudiness was seen was called the minimal inhibitory concentration (MIC). The results obtained are set forth in Tables 2 and 3 below, with the MIC values expressed in μg/ml and set forth in columns beneath the tested compound.

Another assay concerns VRE 17. Nature of the assay: MIC in L broth tubes (Example 10). The format is cell-based. The conditions noted are these: Enterococcus; VRE 17, tetracycline sensitive; read-out: Minimum Inhibitory Concentration. Here is the method:
as §1

In assay [2] the test system is S. aureus RN450. Nature of the assay: MIC in L broth tubes (Example 10). The assay is classed as cell-based. The following applies: Staphylococcus aureus; S. aureus RN450, tetracycline sensitive; 17-18 hours, 37° C.; read-out: Minimum Inhibitory Concentration. On the procedure: as §1
A further assay has as its system VRE 15. As to the kind of experiment: MIC in L broth tubes (Example 10). The following applies: Enterococcus, read-out: Minimum Inhibitory Concentration. The assay is classed as cell-based. Here is the method: as §1
Another assay deals with VRE 19. Nature of the assay: MIC in L broth tubes (Example 10). The conditions noted are these: Enterococcus; VRE 19, tetracycline sensitive; read-out: Minimum Inhibitory Concentration. The format is cell-based. Here is the method: as §1
For a further assay, the system named is E. faecalis pAM211 (L). Nature of the assay: MIC in L broth tubes (Example 10). The assay is classed as cell-based. The following applies: Enterococcus faecalis, read-out: Minimum Inhibitory Concentration. On the procedure: as §1
Another assay relates to VRE 11. As to the kind of experiment: MIC in L broth tubes (Example 10). The conditions noted are these: Enterococcus, read-out: Minimum Inhibitory Concentration. The format is cell-based. Here is the method: as §1
A further assay deals with S. aureus RN4250 (K). Nature of the assay: MIC in L broth tubes (Example 10). The conditions noted are these: Staphylococcus aureus, read-out: Minimum Inhibitory Concentration. The format is cell-based. On the procedure:
as §1

Another assay relates to E. coli D31m4(pHCM1) (B). Nature of the assay: MIC in L broth tubes (Example 10). The assay is classed as cell-based. The following applies: Escherichia coli, read-out: Minimum Inhibitory Concentration. Here is the method: as §1
A further assay relates to S. aureus 12715 (K). As to the kind of experiment: MIC in L broth tubes (Example 10). The assay is classed as cell-based. The conditions noted are these: Staphylococcus aureus, tetracycline resistant, 17-18 hours, 37° C., read-out: Minimum Inhibitory Concentration. On the procedure: as §1
Assay [3] deals with E. faecalis ATCC9790. As to the kind of experiment: MIC in L broth tubes (Example 10). The assay is classed as cell-based. The following applies: Enterococcus faecalis; E. faecalis ATCC9790, tetracycline sensitive; 17-18 hours, 37° C.; read-out: Minimum Inhibitory Concentration. On the procedure: as §1
The next assay concerns MRSA 1. As to the kind of experiment: MIC in L broth tubes (Example 10). The format is cell-based, S. aureus. Here is the method: as §1
The next assay deals with MRSA 3. As to the kind of experiment: MIC in L broth tubes (Example 10). The format is cell-based, S. aureus. The conditions noted are these: Staphylococcus aureus, read-out: Minimum Inhibitory Concentration. Here is the method: as §1
In the next assay the test system is E. faecalid pMV158 (L). As to the kind of experiment: MIC in L broth tubes (Example 10). The format is cell-based, E. faecalis. The conditions noted are these: Enterococcus faecalis, read-out: Minimum Inhibitory Concentration. On the procedure: as §1
The test system of assay [4] is E. coli D31m4. As to the kind of experiment: MIC by broth dilution method (Table 4). The conditions noted are these: E. coli D31m4* Tc^r, lipopolysaccharide-deficient mutant; 18 hours. The format is cell-based. The arrangement: unit not given here. On the procedure:
(§2) The minimum inhibitory concentration, the lowest concentration of drug that inhibits bacterial growth at 18 hours at their appropriate temperature, is determined by the broth dilution method using L-broth or Muller-Hinton broth. The Muller-Hinton broth was cation-adjusted accordingly and all bacteriological methods were performed as was described by Waitz, J. A., National Commision for Clinical Laboratory Standards Document M7-A2, vol.10, no. 8, pp.13-20, 2nd edition, Villanova, Pa. (1990). The organisms tested represent gram-positive and gram-negative bacterial species that are susceptible to tetracyclines or are resistant to tetracyclines due to the ability to efflux tetracyclines or which confer resistance by ribosomal protection mechanisms. The clinical strains used are either susceptible to tetracyclines or are resistant to them by either drug efflux or ribosomal protection.

Assay [5] deals with S. aureus RN450. Nature of the assay: MIC by broth dilution method (Table 4). The arrangement: unit not given here. The conditions noted are these: S. aureus RN450 Tc^s; 18 hours. The format is cell-based. Here is the method:
as §2

In the next assay the test system is E. faecalis pMV158. As to the kind of experiment: MIC by broth dilution method (Table 4). Also noted: unit not given here. The conditions noted are these: E. faecalis pMV158 Tc^r; 18 hours. The format is cell-based. Here is the method:
as §2

A further assay concerns S. aureus RN4250. As to the kind of experiment: MIC by broth dilution method (Table 4). The format is cell-based. The arrangement: unit not given here. The conditions noted are these: S. aureus RN4250 Tc^r; 18 hours. Here is the method:
as §2
Background: Dilution methods test growth across graded concentrations, often in twofold steps.

The next assay deals with S. aureus ATCC12715. Nature of the assay: MIC by broth dilution method (Table 4). The following applies: S. aureus Tc^r ATCC12715; 18 hours. The arrangement: unit not given here. The assay is classed as cell-based. On the procedure: as §2
A further assay concerns S. aureus MRSA5. As to the kind of experiment: MIC by broth dilution method (Table 4). The assay is classed as cell-based. Also noted: unit not given here. The following applies: S. aureus MRSA5 Tc^r; 18 hours. Here is the method:
as §2

For another assay, the system named is E. coli D31m4(pHCM1). Nature of the assay: MIC by broth dilution method (Table 4). The assay is classed as cell-based. The arrangement: unit not given here. The following applies: E. coli D31m4(pHCM1) Tcr; 18 hours. On the procedure:
as §2

The subject of a further assay is E. faecalis pAM211. Nature of the assay: MIC by broth dilution method (Table 4). The format is cell-based. Also noted: unit not given here. The conditions noted are these: E. faecalis pAM211 Tc^r; 18 hours. Here is the method: as §2
The subject of assay [6] is E. faecalis ATCC9790. As to the kind of experiment: MIC by broth dilution method (Table 4). The assay is classed as cell-based. The arrangement: unit not given here. The following applies: E. faecalis Tc^r ATCC9790; 18 hours. Here is the method:
as §2

Turning to `C[C@H]1c2cccc(O)c2C(=O)C2=C(O)[C@]3(O)C(=O)C(C(N)=O)=C(O)[C@@H](N(C)C)C3[C@@H](O)C21` (stereo partly drawn) [Doxycycline, [4S-(4alpha,12aalpha)]-4-(dimethylamino)-1,4,4a,5,5a,6,11,12a-octahydro-3,5,10,12,12a-pentahydroxy-6-methyl-1,11-dioxo-2-naphthacenecarboxamide, reference compound], the MIC was less than 0.78 mg/L in the assay on E. coli D31m4 [1]; not above 1.56 mg/L with VRE 17; less than 0.78 mg/L with S. aureus RN450 [2]; 12.5 mg/L (≈ 28.1 µM) with VRE 15; not above 1.56 mg/L with VRE 19; 12.5 mg/L (≈ 28.1 µM) with E. faecalis pAM211 (L). The MIC was 12.5 mg/L (≈ 28.1 µM) in the assay on VRE 11; 12.5 mg/L (≈ 28.1 µM) with S. aureus RN4250 (K); 12.5 mg/L (≈ 28.1 µM) with E. coli D31m4(pHCM1) (B); 25 mg/L (≈ 56.3 µM) with S. aureus 12715 (K); less than 0.78 mg/L with E. faecalis ATCC9790 [3]; 6.25 mg/L (≈ 14.1 µM) with MRSA 1 (Staphylococcus aureus, MRSA, read-out: Minimum Inhibitory Concentration). The MIC in the assay with MRSA 3 came to 6.25 mg/L (≈ 14.1 µM); in the assay on E. faecalid pMV158 (L) it was 12.5 mg/L (≈ 28.1 µM). For the same compound, in the assay with MRSA 1 (MRSA 1, listed under Tetracycline Sensitive Bacteria), the “Minimum Inhibitory Concentration” value was found to be 6.25 µg/mL. Further, the “Antibacterial activity (minimum inhibitory concentration)” value amounted to 0.78 in the assay with E. coli D31m4 [4]; 0.195 in the assay on S. aureus RN450 [5]; 6.25 in the assay with E. faecalis pMV158; 25 in the assay on S. aureus RN4250; 50 in the assay with S. aureus ATCC12715; 6.25 with S. aureus MRSA5. For the same compound, the “Antibacterial activity (minimum inhibitory concentration)” value in the assay on E. coli D31m4(pHCM1) is given as 12.5; with E. faecalis pAM211 it was 12.5; in the assay on E. faecalis ATCC9790 [6], 0.39.
Turning to `CC(=O)OC1C2C(=C(O)C3(O)C(=O)C(C(N)=O)=C(O)C(N(C)C)C13)C(=O)c1c(ccc(C(C)(C)C)c1O)C2C` (stereo not drawn) [C, [4S-(4alpha,12aalpha)]-9-(tert-butyl)-4-(dimethylamino)-5-acetylcarbonyloxy-1,4,4a,5,5a,6,11,12a-octahydro-3,10,12,12a-tetrahydroxy-6-methyl-1,11-dioxo-2-naphthacenecarboxamide], the “Antibacterial activity (minimum inhibitory concentration)” value with E. coli D31m4 [4] was 3.12; with S. aureus RN450 [5], 0.39; in the assay on E. faecalis pMV158, 0.39; in the assay with S. aureus RN4250, 0.39; with S. aureus ATCC12715, 0.78; with S. aureus MRSA5, 1.56. The “Antibacterial activity (minimum inhibitory concentration)” value was found to be 3.12 with E. coli D31m4(pHCM1), 0.78 in the assay on E. faecalis pAM211 and 0.78 with E. faecalis ATCC9790 [6].
For the compound `CCC(=O)OC1C2C(=C(O)C3(O)C(=O)C(C(N)=O)=C(O)C(N(C)C)C13)C(=O)c1c(ccc(C(C)(C)C)c1O)C2C` (stereo not drawn) [B, [4S-(4alpha,12aalpha)]-9-(tert-butyl)-4-(dimethylamino)-5-propionylcarbonyloxy-1,4,4a,5,5a,6,11,12a-octahydro-3,10,12,12a-tetrahydroxy-6-methyl-1,11-dioxo-2-naphthacenecarboxamide], the “Antibacterial activity (minimum inhibitory concentration)” value in the assay on E. coli D31m4 [4] came to 6.25; in the assay on S. aureus RN450 [5], 0.39; in the assay with E. faecalis pMV158, 0.39; in the assay on S. aureus RN4250, 0.78; in the assay with S. aureus ATCC12715, 1.56; in the assay on S. aureus MRSA5, 3.12. In addition, the “Antibacterial activity (minimum inhibitory concentration)” value is 6.25 in the assay with E. coli D31m4(pHCM1), 0.78 with E. faecalis pAM211 and 1.56 with E. faecalis ATCC9790 [6].
Consider `CC1c2ccc(C(C)(C)CCCBr)c(O)c2C(=O)C2=C(O)[C@]3(O)C(=O)C(C(N)=O)=C(O)[C@@H](N(C)C)C3C(O)C21` (stereo partly drawn) [I, [4S-(4alpha,12aalpha)]-9-[4′-(1′-bromo-4′-methyl)pentyl]-4-(dimethylamino)-1,4,4a,5,5a,6,11,12a-octahydro-3,5,10,12,12a-pentahydroxy-6-methyl-1,11-dioxo-2-naphthacenecarboxamide], for which the “Antibacterial activity (minimum inhibitory concentration)” value worked out at 1.56 with E. coli D31m4 [4]; 0.39 in the assay with S. aureus RN450 [5]; 0.08 in the assay on E. faecalis pMV158; 0.08 in the assay with S. aureus RN4250; 0.78 in the assay with S. aureus ATCC12715; 0.39 in the assay with S. aureus MRSA5. Besides, the “Antibacterial activity (minimum inhibitory concentration)” value in the assay with E. coli D31m4(pHCM1) is recorded as 1.56; with E. faecalis pAM211, 0.78; in the assay with E. faecalis ATCC9790 [6], 0.39.
Consider `CC1c2ccc(C3(C)CCCC3)c(O)c2C(=O)C2=C(O)C3(O)C(=O)C(C(N)=O)=C(O)C(N(C)C)C3C(O)C21` (stereo not drawn) [F, [4S-(4alpha,12aalpha)]-9-[1′-(1′-methyl)cyclopentyl]-4-(dimethylamino)-1,4,4a,5,5a,6,11,12a-octahydro-3,5,10,12,12a-pentahydroxy-6-methyl-1,11-dioxo-2-naphthacenecarboxamide], for which the “Antibacterial activity (minimum inhibitory concentration)” value in the assay with E. coli D31m4 [4] was determined as 0.78; in the assay on S. aureus RN450 [5] it was 0.39; in the assay on E. faecalis pMV158, 0.08; in the assay on S. aureus RN4250, 0.39; with S. aureus ATCC12715 it was 0.78; in the assay with S. aureus MRSA5, 0.08. The “Antibacterial activity (minimum inhibitory concentration)” value in the assay with E. coli D31m4(pHCM1) stood at 1.56; with E. faecalis pAM211 it was 0.39; with E. faecalis ATCC9790 [6], 0.78.

The record behind these values is patent publication US20040152674A1, “Pharmaceutically active compounds and methods of use thereof” (Trustees of Tufts College, priority 1998, published 2004).
